Test results taken from the OligoGym collection.
“And” between values parts separate entries of the source, which are not always exact repeats. Equal entries are not always repeated. HELM strings list units from the 5' end as sugar, base in round brackets, then linkage (d deoxyribose, r ribose, m 2'-O-methyl, p phosphodiester). Methylation of C is not given here. [moe] = 2'-O-(2-methoxyethyl) (MOE); [cEt] = constrained ethyl (cEt); [sp] = phosphorothioate linkage

Molecular target: HBV
Settings: ASO, HepG2, 0.07 µM

Substance | target mRNA inhibition
RNA1{[moe](T)[sp].[moe](G)[sp].[moe](C)[sp].[moe](A)[sp].[moe](G)[sp].[moe](A)[sp].d(G)[sp].d(G)[sp].d(T)[sp].d(G)[sp].d(A)[sp].d(A)[sp].d(G)[sp].d(C)[sp].d(G)[sp].[moe](A)[sp].[moe](A)}$$$$V2.0 | 74% and 63%
RNA1{[moe](A)[sp].[moe](C)[sp].[moe](G)[sp].[moe](G)[sp].d(G)[sp].d(C)[sp].d(A)[sp].d(A)[sp].d(C)[sp].d(A)[sp].d(T)[sp].d(A)[sp].d(C)[sp].[moe](C)[sp].[moe](T)[sp].[moe](T)[sp].[moe](G)}$$$$V2.0 | 38% and 41%
RNA1{[moe](G)[sp].[cEt](C)[sp].[cEt](A)[sp].d(T)[sp].d(A)[sp].d(G)[sp].d(C)[sp].d(A)[sp].d(G)[sp].d(C)[sp].d(A)[sp].d(G)[sp].d(G)[sp].[cEt](A)[sp].[cEt](T)[sp].[moe](G)}$$$$V2.0 | 67% and 71%
RNA1{[moe](A)[sp].[moe](C)[sp].d(G)[sp].d(G)[sp].d(G)[sp].d(C)[sp].d(A)[sp].d(A)[sp].d(C)[sp].d(A)[sp].d(T)[sp].[moe](A)[sp].[moe](C)[sp].[moe](C)[sp].[moe](T)[sp].[moe](T)}$$$$V2.0 | 61% and 42%
RNA1{[moe](A)[sp].[cEt](G)[sp].[cEt](G)[sp].d(C)[sp].d(A)[sp].d(T)[sp].d(A)[sp].d(G)[sp].d(C)[sp].d(A)[sp].d(G)[sp].d(C)[sp].d(A)[sp].[cEt](G)[sp].[cEt](G)[sp].[moe](A)}$$$$V2.0 | 72% and 70%
RNA1{[moe](G)[sp].[moe](T)[sp].[moe](G)[sp].d(C)[sp].d(A)[sp].d(G)[sp].d(A)[sp].d(G)[sp].d(G)[sp].d(T)[sp].d(G)[sp].d(A)[sp].[moe](A)[sp].[moe](G)[sp].[moe](C)[sp].[moe](G)[sp].[moe](A)}$$$$V2.0 | 67% and 62%
RNA1{[moe](G)[sp].[moe](T)[sp].[moe](G)[sp].[moe](A)[sp].d(A)[sp].d(G)[sp].d(C)[sp].d(G)[sp].d(A)[sp].d(A)[sp].d(G)[sp].d(T)[sp].d(G)[sp].[moe](C)[sp].[moe](A)[sp].[moe](C)}$$$$V2.0 | 62% and 71%
RNA1{[moe](T)[sp].[moe](G)[sp].d(G)[sp].d(A)[sp].d(G)[sp].d(C)[sp].d(C)[sp].d(A)[sp].d(C)[sp].d(C)[sp].d(A)[sp].[moe](G)[sp].[moe](C)[sp].[moe](A)[sp].[moe](G)[sp].[moe](G)}$$$$V2.0 | 29% and 41%
RNA1{[moe](A)[sp].[moe](A)[sp].[moe](C)[sp].[moe](T)[sp].[moe](G)[sp].[moe](G)[sp].d(A)[sp].d(G)[sp].d(C)[sp].d(C)[sp].d(A)[sp].d(C)[sp].d(C)[sp].d(A)[sp].d(G)[sp].[moe](C)[sp].[moe](A)}$$$$V2.0 | 70% and 50%
RNA1{[moe](G)[sp].[moe](A)[sp].d(T)[sp].d(G)[sp].d(A)[sp].d(G)[sp].d(G)[sp].d(C)[sp].d(A)[sp].d(T)[sp].d(A)[sp].[moe](G)[sp].[moe](C)[sp].[moe](A)[sp].[moe](G)[sp].[moe](C)[sp].[moe](A)}$$$$V2.0 | 72% and 65%
RNA1{[moe](C)[sp].[moe](T)[sp].d(G)[sp].d(G)[sp].d(A)[sp].d(G)[sp].d(C)[sp].d(C)[sp].d(A)[sp].d(C)[sp].d(C)[sp].[moe](A)[sp].[moe](G)[sp].[moe](C)[sp].[moe](A)[sp].[moe](G)[sp].[moe](G)}$$$$V2.0 | 66% and 64%
RNA1{[moe](A)[sp].[moe](G)[sp].d(G)[sp].d(C)[sp].d(A)[sp].d(T)[sp].d(A)[sp].d(G)[sp].d(C)[sp].d(A)[sp].d(G)[sp].[moe](C)[sp].[moe](A)[sp].[moe](G)[sp].[moe](G)[sp].[moe](A)[sp].[moe](T)}$$$$V2.0 | 75% and 68%
RNA1{[moe](G)[sp].[moe](C)[sp].[moe](A)[sp].d(G)[sp].d(A)[sp].d(G)[sp].d(G)[sp].d(T)[sp].d(G)[sp].d(A)[sp].d(A)[sp].d(G)[sp].[moe](C)[sp].[moe](G)[sp].[moe](A)[sp].[moe](A)[sp].[moe](G)}$$$$V2.0 | 75% and 66%
RNA1{[moe](C)[sp].[moe](C)[sp].[moe](G)[sp].d(C)[sp].d(A)[sp].d(G)[sp].d(T)[sp].d(A)[sp].d(T)[sp].d(G)[sp].d(G)[sp].d(A)[sp].d(T)[sp].[cEt](C)[sp].[cEt](G)[sp].[cEt](G)}$$$$V2.0 | 72% and 79%
RNA1{[moe](C)[sp].[moe](A)[sp].[moe](C)[sp].[moe](T)[sp].[moe](A)[sp].d(G)[sp].d(T)[sp].d(A)[sp].d(A)[sp].d(A)[sp].d(C)[sp].d(T)[sp].d(G)[sp].d(A)[sp].[moe](G)[sp].[moe](C)[sp].[moe](C)}$$$$V2.0 | 71% and 62%
RNA1{[moe](G)[sp].[moe](A)[sp].d(A)[sp].d(G)[sp].d(C)[sp].d(G)[sp].d(A)[sp].d(A)[sp].d(G)[sp].d(T)[sp].d(G)[sp].[moe](C)[sp].[moe](A)[sp].[moe](C)[sp].[moe](A)[sp].[moe](C)[sp].[moe](G)}$$$$V2.0 | 79% and 74%
RNA1{[moe](T)[sp].[moe](T)[sp].[moe](T)[sp].[moe](A)[sp].d(T)[sp].d(G)[sp].d(C)[sp].d(C)[sp].d(T)[sp].d(A)[sp].d(C)[sp].d(A)[sp].d(G)[sp].[moe](C)[sp].[moe](C)[sp].[moe](T)}$$$$V2.0 | 51% and 38%
RNA1{[moe](A)[sp].[moe](C)[sp].[moe](G)[sp].[moe](G)[sp].[moe](G)[sp].[moe](C)[sp].d(A)[sp].d(A)[sp].d(C)[sp].d(A)[sp].d(T)[sp].d(A)[sp].d(C)[sp].d(C)[sp].d(T)[sp].[moe](T)[sp].[moe](G)}$$$$V2.0 | 0%
RNA1{[moe](A)[sp].[moe](C)[sp].[moe](G)[sp].[moe](T)[sp].d(G)[sp].d(C)[sp].d(A)[sp].d(G)[sp].d(A)[sp].d(G)[sp].d(G)[sp].d(T)[sp].d(G)[sp].[moe](A)[sp].[moe](A)[sp].[moe](G)}$$$$V2.0 | 53% and 45%
RNA1{[moe](A)[sp].[moe](A)[sp].[moe](C)[sp].d(C)[sp].d(A)[sp].d(C)[sp].d(T)[sp].d(G)[sp].d(A)[sp].d(A)[sp].d(C)[sp].d(A)[sp].[moe](A)[sp].[moe](A)[sp].[moe](T)[sp].[moe](G)}$$$$V2.0 | 20% and 37%
RNA1{[moe](C)[sp].[moe](G)[sp].[moe](T)[sp].[moe](G)[sp].[moe](C)[sp].d(A)[sp].d(G)[sp].d(A)[sp].d(G)[sp].d(G)[sp].d(T)[sp].d(G)[sp].d(A)[sp].d(A)[sp].[moe](G)[sp].[moe](C)}$$$$V2.0 | 59% and 51%
RNA1{[moe](T)[sp].[moe](T)[sp].[moe](A)[sp].d(T)[sp].d(G)[sp].d(C)[sp].d(C)[sp].d(T)[sp].d(A)[sp].d(C)[sp].d(A)[sp].d(G)[sp].d(C)[sp].[cEt](C)[sp].[cEt](T)[sp].[cEt](C)}$$$$V2.0 | 37% and 53%
RNA1{[moe](T)[sp].[moe](T)[sp].[moe](A)[sp].d(T)[sp].d(G)[sp].d(C)[sp].d(C)[sp].d(T)[sp].d(A)[sp].d(C)[sp].d(A)[sp].d(G)[sp].[moe](C)[sp].[moe](C)[sp].[moe](T)[sp].[moe](C)[sp].[moe](C)}$$$$V2.0 | 61% and 54%
